Consider nine compounds from US9351998B2, “Methods of nourishing animals” (MariCal, Inc., priority 2008, dated 2016).

The test system of one assay is chick jejunal CaSR. The assay can be described thus: phospho-ERK immunoblot of HEK cells transfected with chick jejunal CaSR cDNA after increase in extracellular Ca2+. The class given is cell-based, chicken. Conditions: extracellular Ca2+ increased 0.5 mM to 10 mM. As to the method: HEK-293 cells were plated into 6-well plates so that the cells were 90% confluent at the time of transfection. The linearized and non-linearized plasmids were ethanol precipitated and quantified spectrophotometrically. A ratio of DNA to lipofectamine of 1:3.5 (4 μg of DNA and 14 μl Lipofectamine 2000) was used for the transfection procedure. To provide a negative control, only Lipofectamine was added to some HEK cells. After exposure to lipofectamine, hygromycin B (400 μg/ml) was used to select for HEK cells that had been transfected since the plasmid containing the putative CaSR sequence also contained a hygromycin resistance element.
At the start of hygromycin selection, flasks were about 40% confluent. All flasks experienced a high percentage of die off cells. After an interval of 10 days, all the cells in the negative control flasks were dead. […] Linear flask 1 and non-linear flask 1 were trypsinized by addition of 200 μl trypsin to redistribute dense colonies and prevent overcrowding 10 days after the start of hygromycin selection. New complete media was added containing 400 μg/ml hygromycin. At day 14, flasks had multiple colonies that were well spread out and were beginning to look overcrowded. Each flask was trypsinized, centrifuged and re-plated in a new flask, still under hygromycin selection. At day 17, transfected HEK cells were 60% confluent. […]

In another assay the target is T1, mammalian CaSR (Homo sapiens, UniProt P41180).
T1 construct: expressed in transfected cells; host or cells: HEK cells stably expressing the mammalian CaSR
T1 sequence (P41180 20-1078): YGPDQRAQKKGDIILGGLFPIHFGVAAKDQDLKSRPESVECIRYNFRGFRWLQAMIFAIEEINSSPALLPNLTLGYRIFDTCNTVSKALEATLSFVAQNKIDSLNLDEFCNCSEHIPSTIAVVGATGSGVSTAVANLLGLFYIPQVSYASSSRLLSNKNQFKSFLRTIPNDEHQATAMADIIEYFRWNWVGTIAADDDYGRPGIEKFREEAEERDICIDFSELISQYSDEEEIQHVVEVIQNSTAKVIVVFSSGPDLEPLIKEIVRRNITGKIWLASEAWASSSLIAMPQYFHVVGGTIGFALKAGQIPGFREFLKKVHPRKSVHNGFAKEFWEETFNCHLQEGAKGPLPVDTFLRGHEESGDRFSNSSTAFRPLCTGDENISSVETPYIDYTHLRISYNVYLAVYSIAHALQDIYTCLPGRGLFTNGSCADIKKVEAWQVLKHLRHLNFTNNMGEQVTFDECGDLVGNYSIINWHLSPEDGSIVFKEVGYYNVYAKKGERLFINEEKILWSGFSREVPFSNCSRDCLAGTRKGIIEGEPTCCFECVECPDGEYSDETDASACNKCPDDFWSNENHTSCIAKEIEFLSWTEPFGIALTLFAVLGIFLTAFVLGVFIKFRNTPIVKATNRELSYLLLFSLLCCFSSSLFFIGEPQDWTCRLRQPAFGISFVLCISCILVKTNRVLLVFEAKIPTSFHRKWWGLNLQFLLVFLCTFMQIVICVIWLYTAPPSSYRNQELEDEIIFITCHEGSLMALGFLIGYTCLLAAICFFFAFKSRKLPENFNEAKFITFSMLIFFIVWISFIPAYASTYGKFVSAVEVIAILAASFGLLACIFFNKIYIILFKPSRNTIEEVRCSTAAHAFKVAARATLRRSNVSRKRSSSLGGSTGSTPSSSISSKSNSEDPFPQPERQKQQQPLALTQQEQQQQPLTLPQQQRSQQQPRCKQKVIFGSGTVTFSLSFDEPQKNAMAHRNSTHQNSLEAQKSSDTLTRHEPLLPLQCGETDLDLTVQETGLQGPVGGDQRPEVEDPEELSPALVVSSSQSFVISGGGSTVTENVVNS
Put plainly: FURA2 ratio imaging fluorimetry of HEK cells stably expressing mammalian CaSR. The class given is cell-based. The text has this:
(§1) All methods and equipment utilized to perform experiments on HEK cells have been reported previously (Gama, L. and Breitwieser, G. E. 1998. A carboxyl-terminal domain controls the cooperativity for extracellular Ca2+ activation of the human calcium sensing receptor. A study with receptor-green fluorescent protein fusions. J. Biol. Chem. 273, 29712-29718; Bai, M., Quinn, S., Trivedi, S., Kifor, 0., Pearce, S. H., Pollak, M. R., Krapcho, K., Hebert, S. C. and Brown, E. M. 1996. Expression and characterization of inactivating and activating mutations in the human Ca2+o-sensing receptor. J. Biol. Chem. 271, 19537-19544). Untransfected HEK cells or, alternatively, cells transfected and expressing CaSR protein were cultured in Dulbecco's Modified Eagle Medium containing 10% fetal bovine serum and 1% penicillin-streptomycin in 75 cm^2 flasks until they reached confluence. Media was removed from the flasks and cells were loaded by exposure to Loading Buffer (125 mM NaCl, 4 mM KCl, 1.0 mMCaCl2, 1.0 mM MgCl2, 1 mM NaH2PO4, 20 mM HEPES, 1 gm/liter bovine serum albumin, and 1 gm/l glucose, pH ˜7.4, osmolality ˜285) containing 4.1 micromolar FURA2-AM (Molecular Probes Inc. Eugene, Oreg.) for 2 hr. Cells were then scraped from the surface of the flask using a standard cell scraper (Costar 3010, Corning Inc.). Cells were then pelleted from the suspension by low speed centrifugation to remove loading buffer and rinsed twice to remove extracellular FURA2 dye by two sequential suspensions and pelleting steps using low speed centrifugation. Immediately prior to the start of the experiment, cells were resuspended in various experimental buffers for analyses as described below. The Standard Experimental Buffer used for many studies was composed of: 125 mM NaCl, 4 mM KCl, 0.5 mMCaCl2, 0.5 mM MgCl2, 20 mM HEPES, 1 g/l glucose, pH ˜7.4, osmolality ˜285. All other buffers were variations on this basic composition where specific components within the Standard Experimental Buffer were varied while the remaining components were held constant.
(§2) Cell suspensions consisting of a total volume of 3 ml were analyzed in a PTI fluorimeter (PTI Model 814 Photomultiplier Detection System equipped with SC-500 Shutter Controller and PTI Driver and Analysis Software) within approximately 20 min after exposure to experimental buffers. Data was acquired using standard ratio image analysis as described previously using a data acquisition rate of 1.3 sec. for 500 or 1000 second intervals.
(§3) In selected experiments, the detergent Triton X-100 was added in order to lyse the cells and quantify differences in FURA2 ratio fluorescence. Triton X-100 was added to the cells to obtain a maximal fluorescence signal from the FURA2 for purposes of quantification.
Experiments on HEK cells were performed generally as described in Example 6 herein. […] Subsequent addition of Ca2+ to a final concentration of 5 mM produced an additional response (see FIG. 26A). No response was observed upon addition of 0.025% Mintrex Zn after the addition of experimental buffer (EB) (see FIG. 26B). […] In addition, the magnitude of the CaSR response to 5 mM Ca2+ was diminished by previous addition of Mintrex Zn.
For mammalian CaSR experiments, two individual aliquots from a single pool of HEK cells that stably express the recombinant mammalian CaSR protein were used for ratio imaging fluorimetry assays of CaSR activation generally as described in Example 6 herein. Addition of Ca++ to a final concentration of 2.5 mM produced a CaSR response that was also followed by responses after subsequent additions of 0.025% Zn proteinate followed by Ca++ to a final concentration of 7.5 mM (FIG. 29B). […] There was also a response to a subsequent dose of Ca++ to a final concentration of 7.5 mM (FIG. 29B). In both tracings, the detergent Triton X-100 was added as a final step to lyse the cells.
Experiments on HEK cells were performed generally as described in Example 6 herein. […]

The test system of the next assay is avian CaSR. Put plainly: FURA2 ratio imaging fluorimetry of HEK cells stably expressing avian (chicken) CaSR. The format is cell-based.
Description: as §1, §2, §3
The ability of the CaSR modulator MC0100 to potentiate the response of avian and mammalian CaSRs to the chelated mineral amino acid complex, ZnPro, was tested. For avian CaSR experiments, three individual aliquots from a single pool of HEK cells that stably express the recombinant avian CaSR protein were used for ratio imaging fluorimetry assays of CaSR activation generally as described in Example 6 herein. […] In all aliquots, the detergent Triton X-100 was added as the last addition to lyse the cells (FIG. 29A).
From a single pool of HEK cells stably expressing the avian CaSR, aliquots of cells were removed and analyzed using ratio imaging fluorimetry generally as described in Example 6 herein. After a standard addition of Ca++ to a final concentration of 2.5 mM, either 0.0025%, 0.025% or 0.25% Zinc Proteinate was added followed by a second addition of Ca++ to a final concentration of 7.5 mM. Subsequently, an aliquot of the detergent Triton X-100 was added to lyse the cells. […] The magnitude of the subsequent CaSR response to Ca++ was reduced via increasing Zn Proteinate stimulation.
Fluorimetry analysis was performed on HEK cells expressing the recombinant chicken CaSR protein generally as described in Example 6 herein.

In assay [1] the target is T2, recombinant human CaSR protein (Homo sapiens, UniProt P41180).
T2 construct: expressed in transfected cells; host or cells: HEK cells
T2 sequence (P41180 20-1078): T1 sequence (P41180 20-1078)
The assay can be described thus: FURA2 ratio fluorimetry of HEK cells expressing recombinant human CaSR. The class given is cell-based.
Description: as §1, §2, §3

For the next assay, the target named is recombinant CaSR protein (Homo sapiens, UniProt P41180). Conditions: concentrations of spermine and calcium present in sow's milk (FIG. 20C); cited from earlier work.
For a further assay, the system named is chicken CaSR. The assay can be described thus: CaSR dependent ERK 1/2 phosphorylation (Western blot) in HEK cells transfected with chicken CaSR. The format is cell-based. The settings on record: various concentrations of bacitracin Zn. Here is the method: HEK cells transfected with the chicken CaSR were cultured under standard conditions (DMEM with 10% FCS). Confluent flasks were serum-starved overnight in DMEM supplemented with 0.2% BSA and pre-incubated for 60 min at 37° C. in the following medium: 125 mM NaCl, 4 mM KCl, 20 mM Hepes, 0.1% glucose, 0.8 mM NaH2PO4, 1 mM MgCl2, 0.1% BSA, 0.5 mM CaCl2, pH 7.45. The cells were then incubated in the same medium without BSA in the presence of different mineral chelates at different concentrations (see below) for 15 min at 37° C. At the end of the incubation treatment media was removed and cells were washed with PBS and than lysed in 250 microliter of M-PER lysis buffer (Pierce Chemical Company, Rockford, Ill.) containing 10 ul/ml of protease inhibitors (Pierce Chemical Company, Rockford, Ill.). Cell lysates were centrifuged for 10 min at 4° C. at 14,000×g. The protein content in the supernatants was analyzed using the BCA Protein Assay system from Pierce Chemical Company, Rockford, Ill. Equal amounts of protein (20 ug) were combined with 4× loading buffer and […] DTT, heated to 95° C., separated by SDS gel electrophoresis and electrotransferred to PVD membranes. The membranes were incubated in 1% BSA in TBS-T (TRIS-buffered saline containing Tween 20 at 0.1%) overnight. After 4 washes in TBS-T the membranes were incubated with primary antibody (anti phosphoERK at 1:400 dilution; this antibody recognizes the phosphorylated form of ERK 1/2) for 1.5 hours at room temperatures, washed 4 times and incubated with secondary antibody (anti mouse at 1:50,000 dilution). After 4 washes in TBS-T the membranes were developed using the ECL Western Blotting system.
The experiments described in FIGS. 34 A and B used the following metal chelate treatments: ZnProteinate, CuProteinate and MnProteinate (Balchem Corporation, New Hampton, N.Y.) at the following concentrations: 0.025% and 2.5%, or at a concentration of 0.025% with 1 micromolar MC 0100 (a calcimimetic); or various concentrations of bacitracin Zn.
On the technique in general: Immunoblotting shows a protein as a band on a membrane.

“Also recorded” adds a separate entry of the source.

chicken CaSR, sequence (as listed by the source): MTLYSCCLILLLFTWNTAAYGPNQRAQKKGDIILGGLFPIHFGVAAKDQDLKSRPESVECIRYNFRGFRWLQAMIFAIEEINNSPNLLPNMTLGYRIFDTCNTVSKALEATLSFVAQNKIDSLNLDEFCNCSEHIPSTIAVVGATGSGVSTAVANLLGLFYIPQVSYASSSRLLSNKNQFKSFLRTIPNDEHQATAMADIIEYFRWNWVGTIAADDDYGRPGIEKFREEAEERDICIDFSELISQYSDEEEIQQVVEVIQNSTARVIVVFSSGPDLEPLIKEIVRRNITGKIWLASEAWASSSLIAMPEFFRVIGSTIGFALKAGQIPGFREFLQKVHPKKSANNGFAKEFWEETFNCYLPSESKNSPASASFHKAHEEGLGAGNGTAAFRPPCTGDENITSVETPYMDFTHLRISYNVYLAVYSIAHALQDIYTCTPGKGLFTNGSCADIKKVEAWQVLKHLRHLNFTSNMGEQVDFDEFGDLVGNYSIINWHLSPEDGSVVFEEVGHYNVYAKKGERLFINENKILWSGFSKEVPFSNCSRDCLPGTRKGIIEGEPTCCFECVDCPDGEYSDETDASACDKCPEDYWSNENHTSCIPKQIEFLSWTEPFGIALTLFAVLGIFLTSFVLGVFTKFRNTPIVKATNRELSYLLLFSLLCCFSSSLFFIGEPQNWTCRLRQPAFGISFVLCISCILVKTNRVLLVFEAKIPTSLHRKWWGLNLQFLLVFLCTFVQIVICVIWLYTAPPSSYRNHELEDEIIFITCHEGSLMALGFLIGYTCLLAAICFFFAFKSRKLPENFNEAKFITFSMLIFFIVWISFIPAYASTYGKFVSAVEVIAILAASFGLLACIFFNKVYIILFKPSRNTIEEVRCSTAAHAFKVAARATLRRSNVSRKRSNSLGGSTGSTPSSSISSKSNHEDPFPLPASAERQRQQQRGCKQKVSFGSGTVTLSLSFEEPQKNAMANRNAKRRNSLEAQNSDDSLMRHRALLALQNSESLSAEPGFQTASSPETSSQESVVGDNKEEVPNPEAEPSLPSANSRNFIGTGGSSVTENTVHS

`[Ca+2]` [Ca2+]: in the assay on chick jejunal CaSR, the “activation of the ERK kinase pathway (phospho-ERK)” value is given as “selective activation”.

With `N[C@@H](Cc1ccccc1)C(=O)O` [L-Phenylalanine], the “effect on Mintrex Zn inhibition of CaSR response to Ca++ stimulus” value at mammalian CaSR (3 mM L-Phe after 0.025% Mintrex Zn, 1.5 mM Ca++, Ca++ to 5 mM) is on record as “reversed Mintrex-Zn's inhibition”; in the assay with avian CaSR (3 mM L-Phe after 0.25% Mintrex Zn, Ca++ to 7.5 mM), “reversed Mintrex-Zn's inhibition”.

As for `CC(C)(Cc1ccc2ccccc2c1)NC[C@@H](O)COc1cccc(Cl)c1C#N` [MC106], on mammalian CaSR (1 micromolar MC106 added first), the “effect on CaSR response to 2.5 mM Ca2+” value is “eliminated” and the “effect on subsequent CaSR response to 5 mM Ca2+” value was “reduced”. The “CaSR response to the modulator itself” value on mammalian CaSR (1 micromolar MC106 in DMSO) was “did not itself produce a CaSR response; also recorded: did not elicit a CaSR response”. Also, the “effect on CaSR responses to 0.25% Mintrex Zn or 5.5 mM Ca2+” value on mammalian CaSR (initial addition of 1 micromolar MC106) is “reduced or eliminated responses”. The “effect of modulator on CaSR stimulation by Mintrex Zn” value on mammalian CaSR (pre-addition of MC106 (FIG. 30D)) was “suppress the stimulation”. Besides, the “effect of prior modulator on CaSR response to Zn Proteinate” value in the assay on avian CaSR (1 micromolar MC106, 0.25% Zinc Proteinate) was “reduced the avian CaSR's response”. As for `NCCCN` [diaminopropane], in assay [1], the “activation of recombinant human CaSR (intracellular calcium)” value (“activation … (intracellular calcium)” for short) was “sharp increase in intracellular calcium”. Same read-out and setting: the entry for `N=C(N)NCCC[C@H](N)C(=O)O.NCC(=O)O.NCC(=O)O` [gly-gly-arg, glycine-glycine-arginine] is “significant activation”.

Consider `NCCCNCCCCNCCCN` [spermine], for which the “activation of recombinant CaSR” value on recombinant CaSR protein is reported as “activated”.

For the compound Casein, the “activation … (intracellular calcium)” value in assay [1] was “acts as an agonist”. As to bacitracin Zn, in the assay on chicken CaSR, the “ERK1/2 phosphorylation as compared to Ca++ with MC0100” value was “increase in ERK1/2 phosphorylation”. Take “bovine serum albumin: a protein that also binds calcium”: the “activation … (intracellular calcium)” value in assay [1] is “has no effect”.
